Experiment [1] relates to Atoh1 expression in mouse cerebellar neural precursor cells. Description: Atoh1 induction assay in mouse cerebellar neural precursor cells (NPCs), Atoh1-GFP reporter. The note with it: 10 doses 50 μM to 200 nM, 72 hours treatment, DMSO control = 1, more than 5 considered significant, read-out: fold difference (maximum fold difference of GFP average intensity in cell nuclei over the DMSO control). Type of experiment: cell-based. The procedure:
(§1) Compounds of the present disclosure were assessed for their ability to increase the Atoh1 expression in mouse cerebellar neural precursor cells. The ability of compounds of the present disclosure to induce new hair cell formation was assessed in ex vivo hair cell induction assay using 6-day-postnatal mouse cochlea explants with hair cell damage.
Atoh1 Induction Assay in Mouse Cerebellar Neural Precursor Cells (NPCs)
Atoh1 induction assay was conducted with in vitro cultured cerebellar neural precursor cells isolated from neonatal transgenic Atoh1-GFP mice. Atoh1 expression is mainly regulated by the enhancer, and the nuclear GFP was driven by the cloned enhancer sequence at 3′ of Atoh1 which had high conservation among mammalians. So Atoh1 induction could be reflected by GFP activation in cerebellar neural precursor cells (Helms et al., Development 2000; 127: 1185-1196; Lumpkin et al., Gene Expression Patterns 2003; 3: 389-395). Postnatal 3 days pups were dissected for cerebellum tissue isolation. The cerebellum tissue was cut into small pieces, and dissociated with 0.05% Trypsin for about 10 minutes at 37° C., and then filtered with a 70 uM cell strainer. The cells were cultured as neuropsheres for the first 2 days in ultra-low attachment dish/well-plate with DMEM/F12+1% N2 &2% B27 with 1% P/S, 20 ng/ml rhFGF2 and 20 ng/ml rhEGF (R&D Systems). Then the spheres were plated to the matrigel (1:30 diluted in DMEM/F12)-coated tissue culture dish for monolayer culture. After 4.5-5.5 days culture in vitro (DIV), cells were dissociated with 0.05% trypsin into single cells, and frozen after cell number calculation.
The cerebellar neural precursor cells (NPCs) were re-thawed from stock and cultured for another 2 days before used for Atoh1 induction assay. On the first day of assay, NPCs were seeded into matrigel-coated 384 well plates (Black view-plate, PE) at 2500 cells/well. After over-night culture, the NPCs were treated with representative compounds of the present disclosure with 1:2 serial dilutions for 10 doses, from 50 μM to 200 nM, with DMSO as negative control. After 72 hours treatment without medium change, the cells were fixed with 4% formalin for staining. Assay plates were stained with GFP antibody (Abcam, #13970, 1:1000) to amplify endogenous GFP signal and then read by Cellomics.

In experiment [2] the test system is 6-day-postnatal mouse cochlea explants with hair cell damage. Description: Ex vivo hair cell induction assay using 6-day-postnatal mouse cochlea explants with hair cell damage. The note with it: P6 Atoh1-GFP mouse cochlea explants, neomycin-damaged; 3 to 10 μM compound for 8 days, then 4 days blank medium; mean ± SD; DMSO = 0%; more than 20% considered significant. Type of experiment: cell-based. The procedure:
as §1
Ex Vivo Hair Cell Induction Assay Using 6-Day-Postnatal Mouse Cochlea Explants with Hair Cell Damage
P6, postnatal 6 days, Atoh1-GFP mice, the same mouse strain used for Atoh1 induction assay described before, were used in this assay. The otic capsule was exposed and the cochleae were micro-dissected. […] and in vitro cultured in serum free medium (culture medium: DMEM/F12+1% N2+2% B27+5 μg/ml ampicillin) at 37° C. under a standard gas atmosphere of humidified air/5% CO2. Inner ear hair cells were damaged by 1 mM Neomycin treatment for 1.25 h. After the neomycin treatment, explants were cultured in blank culture medium for 7 days before the treatment of selected compounds.
For compound administration, the cochlea explants were treated with 3 to 10 μM compound of the present disclosure, with DMSO as the negative control for 8 days with once compound/medium change. After 8 days treatment, the tested compound was removed. The explants were cultured in blank medium for additional 4 days. The cochlea explant cultures then were fixed with 4% w/v formalin and processed for Myo7a immunofluorescence (Myo7a is a specific marker for sensory hair cell) using the rabbit anti-Myo7a antibody (Protus Biosci #25-6790, 1:250 diluted in PBS containing 3% BSA). Rhodamine labeled Goat-anti-rabbit IgG (Molecular Prob. #R6394, 1:1000 diluted in PBS containing 3% BSA) was used as the secondary antibody to visualize the Myo7a positive cells. The images were collected and analyzed using the EVOS image system (Thermo-Fisher Scientific). […] The hair cell identity of the ectopically formed cells was confirmed by staining the cells with multiple hair cell markers.
The efficacy of hair cells induction in this assay is represented by the responsive length percentage of Atoh1 and Myo7a double positive cells in the damaged whole explants after compound treatment. The responsive length percentage was calculated according to the equation of ((the explant length with Atoh1 and Myo7a double positive cells/the full length of cochlea explant)*100%). Note the value of DMSO control is 0% due to total damage of hair cells, and any responsive length percentage more than 20% is considered as significant hair cell induction.

Molecules are shown by their SMILES.

As for `CN1CCN(CCCCCNC(=O)c2cc(-c3ccc(F)cc3)on2)CC1` [Example 10, 5-(4-Fluorophenyl)-N-(5-(4-methylpiperazin-1-yl)pentyl)isoxazole-3-carboxamide], the maximal fold induction in experiment [1] was 17.6. Besides, the “Responsive length % (explant length with Atoh1 and Myo7a double positive cells / full length of cochlea explant)” value in experiment [2] turned out to be 59.1 ± 9.1%.

With `CC1CN(CCCCCNC(=O)c2cc(-c3cccs3)on2)CC(C)N1C` (stereo not shown) [Example 15, 5-(Thiophen-2-yl)-N-(5-(3,4,5-trimethylpiperazin-1-yl)pentyl)isoxazole-3-carboxamide], the maximal fold induction in experiment [1] was 15.3. In experiment [2], the “Responsive length % (explant length with Atoh1 and Myo7a double positive cells / full length of cochlea explant)” value worked out at 50.1 ± 9.9%.

On to `O=C(NCCCCCN1CC(O)C1)c1cc(-c2cccs2)on1` [Example 48], for which, in experiment [1], the maximal fold induction was found to be 37.5. In experiment [2], the “Responsive length % (explant length with Atoh1 and Myo7a double positive cells / full length of cochlea explant)” value was 75.8 ± 4.5%.

On to `CN1CC2CCC1CN2CCCCCNC(=O)c1cc(-c2cccs2)on1` (stereo not shown) [Example 52, N-(5-(5-methyl-2,5-diazabicyclo[2.2.2]octan-2-yl)pentyl)-5-(thiophen-2-yl)isoxazole-3-carboxamide], for which the maximal fold induction in experiment [1] stood at 26.7. Also, the “Responsive length % (explant length with Atoh1 and Myo7a double positive cells / full length of cochlea explant)” value in experiment [2] is listed as 28.2 ± 11.9%.

With `O=C(NCCCCCN1CC(F)C1)c1cc(-c2cccs2)on1` [Example 59], the maximal fold induction in experiment [1] is 29.1. The “Responsive length % (explant length with Atoh1 and Myo7a double positive cells / full length of cochlea explant)” value in experiment [2] came out at 54.1 ± 5.8%.

In the case of `O=C(NCCCCCN1CCN(CCO)CC1)c1cc(-c2cccs2)on1` [Example 54, N-(5-(4-(2-hydroxyethyl)piperazin-1-yl)pentyl)-5-(thiophen-2-yl)isoxazole-3-carboxamide], the maximal fold induction in experiment [1] came to 27.8. The “Responsive length % (explant length with Atoh1 and Myo7a double positive cells / full length of cochlea explant)” value in experiment [2] turned out to be 35.6 ± 11.8%.

Take `C[C@@H]1CN(CCCCCNC(=O)c2cc(-c3cccs3)on2)C[C@H](C)O1` [Example 42]: the maximal fold induction in experiment [1] came to 23.7. Besides, the “Responsive length % (explant length with Atoh1 and Myo7a double positive cells / full length of cochlea explant)” value in experiment [2] came out at 28.8 ± 8.3%.

On to `N#CC1CCN(CCCCCNC(=O)c2cc(-c3cccs3)on2)CC1` [Example 56], for which the maximal fold induction in experiment [1] came to 36.9. The “Responsive length % (explant length with Atoh1 and Myo7a double positive cells / full length of cochlea explant)” value in experiment [2] worked out at 26.5 ± 9.4%.

On to `O=C(NCCCCCN1CC2CCC(C1)O2)c1cc(-c2cccs2)on1` [Example 51, N-(5-(8-oxa-3-azabicyclo[3.2.1]octan-3-yl)pentyl)-5-(thiophen-2-yl)isoxazole-3-carboxamide], for which, in experiment [1], the maximal fold induction was 9.9. In addition, the “Responsive length % (explant length with Atoh1 and Myo7a double positive cells / full length of cochlea explant)” value in experiment [2] stood at 48.6 ± 3.0%.

For `N#CCC1CN(CCCCCNC(=O)c2cc(-c3ccc(F)cc3)on2)C1` [Example 66], the maximal fold induction in experiment [1] came to 25.1. Also, in experiment [2], the “Responsive length % (explant length with Atoh1 and Myo7a double positive cells / full length of cochlea explant)” value stood at 61.5 ± 6.0%.

`N#CCC1CN(CCCCCNC(=O)c2cc(-c3cccs3)on2)C1` [Example 49]: the maximal fold induction in experiment [1] was 37.1. Moreover, in experiment [2], the “Responsive length % (explant length with Atoh1 and Myo7a double positive cells / full length of cochlea explant)” value stood at 47.5 ± 9.2%.

As to `O=C(NCCCCCN1CC(CO)C1)c1cc(-c2cccs2)on1` [Example 55], the maximal fold induction in experiment [1] was determined as 29. For the same compound, the “Responsive length % (explant length with Atoh1 and Myo7a double positive cells / full length of cochlea explant)” value in experiment [2] came to 53.1 ± 6.2%.

For `NC(=O)C1CN(CCCCCNC(=O)c2cc(-c3cccs3)on2)C1` [Example 27, N-(5-(3-Carbamoylazetidin-1-yl)pentyl)-5-(thiophen-2-yl)isoxazole-3-carboxamide], in experiment [1], the maximal fold induction came out at 33.7. Further, the “Responsive length % (explant length with Atoh1 and Myo7a double positive cells / full length of cochlea explant)” value in experiment [2] is 66.0 ± 2.4%.

As to `CC1CN(CCCCCNC(=O)c2cc(-c3cccs3)on2)CC(C)N1` (stereo not shown) [Example 14, N-(5-(3,5-Dimethylpiperazin-1-yl)pentyl)-5-(thiophen-2-yl)isoxazole-3-carboxamide], the maximal fold induction in experiment [1] is 29.1. The “Responsive length % (explant length with Atoh1 and Myo7a double positive cells / full length of cochlea explant)” value in experiment [2] amounted to 45.3 ± 6.7%.

(Values after US20220117945A1, “ISOXAZOLE CARBOXAMIDE COMPOUNDS AND USES THEREOF” (NOVARTIS AG, priority 2017, published 2022).)
